Measured values from US20120172359A1 (NOVARTIS AG, priority 2010, published 2012).
Counter-ions that a name gives are not always drawn.

Experiments:
Human BACE-1 = Human BACE-1 (Homo sapiens, UniProt P56817); assay: Test 1: Inhibition of Human BACE-1; format: biochemical; conditions: Test 1; recombinant BACE-1 (extracellular domain), acetate buffer pH 4.5, 1 hour with test compound at room temperature, fluorescence-quenched peptide substrate; read-out: Bace IC50
[1] = tested on: cellular release of amyloid peptide 1-40; assay: Test 4: Inhibition of Cellular Release of Amyloid Peptide 1-40; format: cell-based; conditions: Cricetulus griseus, Chinese hamster ovary cells transfected with the gene for amyloid precursor protein, 24 hours with test compound, amyloid peptide 1-40 in supernatant, read-out: Bace IC50
Protocol: Test 4: Inhibition of Cellular Release of Amyloid Peptide 1-40
Chinese hamster ovary cells are transfected with the gene for amyloid precursor protein. The cells are plated at a density of 8000 cells/well into 96-well microtiter plates and cultivated for 24 hours in DMEM cell culture medium containing 10% FCS. The test compound is added to the cells at various concentrations, and the cells are cultivated for 24 hours in the presence of the test compound. The supernatants are collected, and the concentration of amyloid peptide 1-40 is determined using state of the art immunoassay techniques, for example sandwich ELISA, homogenous time-resolved fluorescence (HTRF) immunoassay, or electro-chemiluminescence immunoassay.

Chain of Human BACE-1 (P56817 46-457 limits assumed): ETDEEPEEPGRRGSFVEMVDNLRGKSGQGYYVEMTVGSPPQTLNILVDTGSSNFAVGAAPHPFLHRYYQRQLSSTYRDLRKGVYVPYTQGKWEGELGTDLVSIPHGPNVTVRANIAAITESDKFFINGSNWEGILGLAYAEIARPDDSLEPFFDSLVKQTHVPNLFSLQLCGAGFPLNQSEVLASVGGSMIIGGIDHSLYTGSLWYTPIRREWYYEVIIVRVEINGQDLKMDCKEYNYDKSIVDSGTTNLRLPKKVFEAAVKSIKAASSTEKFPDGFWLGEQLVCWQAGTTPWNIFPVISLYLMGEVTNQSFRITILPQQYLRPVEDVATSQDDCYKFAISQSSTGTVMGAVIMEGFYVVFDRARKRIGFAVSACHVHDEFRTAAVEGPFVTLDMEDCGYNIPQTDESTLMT

Compound | IC50 (Human BACE-1) [nM] | IC50 [1] [nM]
Cc1nc(C(=O)Nc2cccc(C3(C(F)F)COCC(N)=N3)c2)co1 (centres unmarked) [Example 104, 2-Methyl-oxazole-4-carboxylic acid [3-(5-amino-3-difluoromethyl-3,6-dihydro-2H-[1,4]oxazin-3-yl)-phenyl]-amide hydrochloride] | 1500 | 150
Cl.[2H]c1nc(C(=O)Nc2ccc(F)c([C@]3(C(F)F)COCC(N)=N3)c2)c(C([2H])([2H])[2H])c([2H])c1Br [Example 116, 5-Bromo-4,6-dideutero-3-trideuteromethyl-pyridine-2-carboxylic acid [3-((R)-5-amino-3-difluoromethyl-3,6-dihydro-2H-[1,4]oxazin-3-yl)-4-fluoro-phenyl]-amide hydrochloride] | 18 | 4
NC1=N[C@@](c2cc(NC(=O)c3cn4ccccc4n3)ccc2F)(C(F)F)COC1 [Example 129, Imidazo[1,2-a]pyridine-2-carboxylic acid [3-((R)-5-amino-3-difluoromethyl-3,6-dihydro-2H-[1,4]oxazin-3-yl)-4-fluoro-phenyl]-amide hydrochloride] | 2200 | 1200
Cc1cc(C#N)cnc1C(=O)Nc1ccc(F)c([C@]2(C(F)F)COCC(N)=N2)c1 [Example 144, 5-Cyano-3-methyl-pyridine-2-carboxylic acid [3-((R)-5-amino-3-difluoromethyl-3,6-dihydro-2H-[1,4]oxazin-3-yl)-4-fluoro-phenyl]-amide] | 17 | 6
[2H]c1nc(C(=O)Nc2ccc(F)c([C@]3(C(F)F)COCC(N)=N3)c2)c(C([2H])([2H])[2H])c([2H])c1C#N [Example 147, 5-Cyano-4,6-dideutero-3-trideuteromethyl-pyridine-2-carboxylic acid [3-((R)-5-amino-3-difluoromethyl-3,6-diydro-2H-[1,4]oxazin-3-yl)-4-fluoro-phenyl]-amide] | 79 | 8
CC#CCOc1cnc(C(=O)Nc2ccc(F)c([C@]3(C(F)F)COCC(N)=N3)c2)cn1 [Example 164, 5-But-2-ynyloxy-pyrazine-2-carboxylic acid [3-((R)-5-amino-3-difluoromethyl-3,6-dihydro-2H-[1,4]oxazin-3-yl)-4-fluoro-phenyl]-amide] | 1 | 1
COc1cnc(C(=O)Nc2ccc(F)c([C@]3(C(F)F)COCC(N)=N3)c2)c(N)n1 [Example 175, 3-Amino-5-methoxy-pyrazine-2-carboxylic acid [3-((R)-5-amino-3-difluoromethyl-3,6-dihydro-2H-[1,4]oxazin-3-yl)-4-fluoro-phenyl]-amide] | 16 | 4
